Tests used:
[1] = tested on: His-free control maquette; experiment: Absorption spectra of porphyrin with His-free control maquette; type: binding; details: 4 μM porphyrin, 2 μM maquette
Excerpt: (§1) The structural requirements for tetrapyrrole self-assembly in aqueous solution were first tested with Zn tetraphenyl porphyrins. The solubility in polar and non-polar environments was adjusted through combinations of hydrophobic and hydrophilic groups at the meso positions. Zn tetrapyrrole pigments discussed in this text are abbreviated with bold numbers, with full chemical names given in the Experimental section and structures illustrated in the figures. […] Thus, one non-polar edge of a Zn porphyrin was sufficient to provide facile binding.
(§2) Blue, green and red spectra correspond to no maquette, His-free maquette or His-containing maquette, respectively. Panel (A) and (B) show spectra for 4 μM porphyrins (1) or (2) respectively with 2 μM maquette, when present.
(§3) Protein solutions were prepared in CHES buffer (20 mM, 150 mM KCl, pH 9.0). Binding was monitored by UV/Vis Soret band absorbance on a Varian Cary-50 spectrophotometer at room temperature in a 1 cm path quartz cuvette. Secondary structure was monitored by CD spectroscopy (Aviv Model 410) at 25 °C with a 1 mm path quartz cuvette. Thermal denaturation was followed by monitoring the ellipticity at 222 nm every 5 °C after 15 minutes of equilibration. Melting temperatures were calculated using a Boltzmann equation with one term for each observed transition.

His-containing maquette = experiment: Absorption spectra of porphyrin with His-containing maquette; type: binding; details: 4 μM porphyrin, 2 μM maquette
Excerpt: as §1, §2, §3

[2] = Water solubility of the tetrapyrrole (qualitative); type: physicochemical
[3] = tested on: His-containing four-helix maquette (histidines at positions 7 and 112); experiment: Cofactor binding titration into His maquette, UV/Vis spectra analysed by SVD; details: for comparative binding affinity, in words: maquette, Fig. 4; for Kd: CHES buffer pH 9.0, 25 °C, SVD fit of spectral titration, read-out: Kd (dissociation constant for each His site)
Excerpt: To determine the acceptable range and pattern of hydrophobic vs. hydrophilic perimeters for Zn porphyrins, we synthesized all permutations of phenyl and carboxyphenyl tetra meso substituents (Fig. 3 and 4). The visible spectral changes that occurred as these porphyrins were titrated into a His maquette solution were fitted to a simple binding model with a single dissociation constant (K d) for each His site using singular value decomposition.[16] […] At least one hydrophobic and one hydrophilic group substitution is necessary for porphyrin ligating to the maquettes with nanomolar affinities.
as §3
Pigment stock solutions were weighed out and solubilized in dimethylsulfoxide to give concentrations of 1 mM Zn porphyrins, 1 mM chlorin (11), 500 μM chlorin (12), and 2 mM chlorin (13). Binding of Zn porphyrins shift the Soret peak from 422 nm to 432 nm. Binding of chlorins shift the Soret band from 415 nm to 423 nm for (12), 411 nm to 425 nm for (13), and 409 nm to 417 nm for (11). Dissociation constants (K d values) were determined as follows. To 1 ml of protein solution at 25 °C, 1 μl additions of 0.2 (porphyrin) or 0.1 (chlorin) equivalent aliquots were added successively to obtain a spectrum from 300 to 700 nm. At 1 equivalent of cofactor the DMSO concentration is 1%. Titrations typically ended at 4 equivalents of cofactor. […] The amplitudes of the first two principle components as a function of total pigment added fit well to a mathematical model of a single dissociation constant for each protein binding site to generate fit spectral extinction coefficients at each wavelength for the unbound and bound pigment spectra as well as values and error estimates for the dissociation constants.

protein maquette = experiment: Stopped-flow mixing of tetrapyrrole and maquette (binding kinetics); details: for binding speed, in words: stopped-flow mixing
Procedure: Tetrapyrrole and protein were added to separate syringes of an OLIS RSM 1000 stopped flow spectrophotometer, which takes a full visible spectrum every millisecond through a 2 cm flow cell after rapid (∼2 ms deadtime) mixing. Temperature was controlled with a Fischer-Scientific IsoTemp 3031 water bath. Individual wavelengths were selected for further kinetic analysis. All experiments were performed in triplicate, and the data were averaged together for further analysis.
Title: Design and engineering of water -soluble light-harvesting protein maquettes Goutham Kodali, Joshua A. Mancini, Lee A. Solomon, Tatiana Esipova, Nicholas Roach, Christopher J. Hobbs, Pawel Wagner, Olga A. Mass, Kunche Aravindu, Jonathan E. Barnsley, Keith C. Gordon, David L. Officer, P. Leslie Dutton and Christopher C. Moser*
Figure S1: Proliferating carbox ylic groups on the 15- porph yrin substituent leads to faster […]
Conditions: 2 µ M of protein maquette in 20 mM CHES, 150 mM KCl mixed with one equivalent of porphyrin, either 5- phen yl-15-carbox y phen ylporph yrin [9] (red) or 5- phen yl -15- Newkome phen ylporphyrin [10] (green).
Normalized absorbance i ncreas e with time in seco nds.

maquette = experiment: Thermal denaturation of maquette by circular dichroism at 222 nm; details: 2 μM maquette with 2 equivalents of cofactor
Procedure: Fig. 7 Thermal stability of the maquette increased upon tetrapyrrole binding. Circular dichroism at 222 nm monitors alpha helical folding for 2 μM maquette without (blue) or with (red) 2 equivalents of (11) as a function of temperature.
as §3

O=S(=O)([O-])c1ccc(-c2c3nc(c(-c4ccc(S(=O)(=O)[O-])cc4)c4ccc([n-]4)c(-c4ccc(S(=O)(=O)[O-])cc4)c4nc(c(-c5ccc(S(=O)(=O)[O-])cc5)c5ccc2[n-]5)C=C4)C=C3)cc1.[Zn+2].[Zn+2].[Zn+2] [compound 1, Zn(II) 5,10,15,20-tetra(4-sulphonatophenyl)porphyrin]
association with His-free maquette (Soret spectral change) [1]: does not associate with either maquette
association with His-containing maquette (Soret spectral change) (His-containing maquette): does not associate with either maquette
water solubility, in words [2]: highly water-soluble

O=S(=O)([O-])c1ccc(-c2c3nc(c(-c4ccc(S(=O)(=O)[O-])cc4)c4ccc([n-]4)c(-c4ccc(S(=O)(=O)[O-])cc4)c4nc(c(-c5ccccc5)c5ccc2[n-]5)C=C4)C=C3)cc1.O=S(=O)([O-])c1ccc(-c2c3nc(c(-c4ccc(S(=O)(=O)[O-])cc4)c4ccc([n-]4)c(-c4ccc(S(=O)(=O)[O-])cc4)c4nc(c(-c5ccccc5)c5ccc2[n-]5)C=C4)C=C3)cc1.[Zn+2].[Zn+2].[Zn+2].[Zn+2].[Zn+2] [compound 2, Zn(II) 5,10,15-tri(4-sulphonatophenyl)-5-phenylporphyrin]
association with His-free maquette (Soret spectral change) [1]: partial association of the tetrapyrrole with the maquette
association with His-containing maquette (Soret spectral change) (His-containing maquette): indicative of histidine ligation

C1=Cc2nc1c(-c1ccccc1)c1ccc([n-]1)c(-c1ccccc1)c1nc(c(-c3ccccc3)c3ccc([n-]3)c2-c2ccccc2)C=C1.[Zn+2] [compound 3, Zn(II) 5,10,15,20-tetraphenylporphyrin, reference compound]
comparative binding affinity, in words [3]: too weak to measure accurately

O=C(O)c1ccc(-c2c3nc(c(-c4ccccc4)c4ccc([n-]4)c(-c4ccccc4)c4nc(c(-c5ccccc5)c5ccc2[n-]5)C=C4)C=C3)cc1.[Zn+2] [compound 4, Zn(II) 5-4-(carboxyphenyl)-10,15,20-triphenylporphyrin]
affinity relative to (5), (6) and (7) ([3]; His maquette, estimated): about two orders of magnitude tighter

O=C(O)c1ccc(-c2c3nc(c(-c4ccc(C(=O)O)cc4)c4ccc([n-]4)c(-c4ccc(C(=O)O)cc4)c4nc(c(-c5ccc(C(=O)O)cc5)c5ccc2[n-]5)C=C4)C=C3)cc1.[Zn+2] [compound 8, Zn(II) 5,10,15,20-tetra(4-carboxyphenyl)porphyrin]
comparative binding affinity, in words [3]: too weak to measure accurately

O=C(O)c1ccc(-c2c3nc(cc4ccc([n-]4)c(-c4ccccc4)c4nc(cc5ccc2[n-]5)C=C4)C=C3)cc1.[Zn+2] [compound 9, Zn(II) 5-phenyl-15-(p-carboxyphenyl)porphyrin]
time for binding equilibrium to reach completion (protein maquette; stopped flow, 2 µM maquette, one equivalent of porphyrin, 20 mM CHES, 150 mM KCl): 20 min

Cc1ccc(-c2c3nc(cc4ccc([nH]4)c(-c4ccc(C(=O)O)cc4)c4nc(cc5ccc2[nH]5)C(C)(C)C4)C=C3)cc1 [compound 11, 15-(4-carboxyphenyl)-17,18-dihydro-18,18-dimethyl-5-p-tolylporphyrin]
Kd ([3]; His maquette): 80 ± 10 nM
binding speed, in words (protein maquette): binds much faster than the similarly substituted porphyrin (9)
structure stabilization corresponding to the Tm shift (maquette): 6.8 kcal mol^–1
thermal mid point transition of α-helical structure (Tm) upon chlorin binding (maquette; 46 °C without cofactor): 61 °C

CC1(C)Cc2nc1cc1cc(C#Cc3ccccc3)c(cc3nc(cc4ccc([n-]4)c2-c2ccc(C(=O)O)cc2)C=C3)[n-]1.[Zn+2] [compound 12, Zn(II) 15-(4-carboxyphenyl)-17,18-dihydro-18,18-dimethyl-3-(phenylethynyl)porphyrin]
lowering of affinity relative to (11) ([3]; His maquette, Kd of (12) vs (11)): 4.5 fold

C=Cc1c(C)c2[n]3c1=CC1=[N+]4C(=Cc5c(C)c6c7[n]5[Zn-2]34[N+]3=C(C=2)[C@@H](C)[C@H](CCC(=O)O)C3=C7[C@@H](C(=O)OC)C6=O)C(CC)=C1C (stereo partly drawn) [compound 13, Zn pheophorbide a]
Kd ([3]; His maquette): 4 ± 3 nM

Zn(II) 5-phenyl-15-(p-carboxyphenyl)porphyrin with first generation Newkome dendrimer [compound 10]
Kd ([3]; His maquette): 250 ± 47 nM
binding speed, in words (protein maquette): few ms timescale
water solubility, in words [2]: substantially increased the water solubility

Source: article PMC5330312, “Design and engineering of water-soluble light-harvesting protein maquettes” (Chemical Science, 2016)
